“And” between values parts separate entries of the source, which are not always exact repeats. Identical values can stand only once. Toxic doses and inconclusive results are not listed. No stated cut-off is given here; in the data, active means T/C of 150% or more; inactive means T/C below 125%.
Tested on: L1210 leukemia ip in BDF1 mice, survival T/C
Test: NCI In Vivo Anticancer Drug Screen. Data for tumor model L1210 Leukemia (intraperitoneal) in B6D2F1 (BDF1) mice
Details: endpoint: mean survival time, higher = longer survival
In short: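 Transplanted-tumor mice were given test agent; controls received vehicle only. Survival readings from the two groups were divided (treated over control).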

[1] = dose: 100.0 mg/kg/injection, schedule: Q01DX009 (ip), vehicle: Klucel (hydroxypropylcellulose) (HPC)
[2] = dose: 200.0 mg/kg/injection, schedule: Q01DX009 (ip), vehicle: Klucel (hydroxypropylcellulose) (HPC)
[3] = dose: 100.0 mg/kg/injection, schedule: Q04DX003 (ip), vehicle: saline with Tween-80
[4] = dose: 200.0 mg/kg/injection, schedule: Q04DX003 (ip), vehicle: saline with Tween-80
[5] = dose: 400.0 mg/kg/injection, schedule: Q04DX003 (ip), vehicle: saline with Tween-80
[6] = dose: 400.0 mg/kg/injection, schedule: Q01DX009 (ip), vehicle: Klucel (hydroxypropylcellulose) (HPC)
[7] = dose: 100.0 mg/kg/injection, schedule: Q04DX003 (ip), vehicle: saline
[8] = dose: 100.0 mg/kg/injection, schedule: Q04DX003 (ip), vehicle: Klucel (hydroxypropylcellulose) (HPC)
[9] = dose: 200.0 mg/kg/injection, schedule: Q04DX003 (ip), vehicle: Klucel (hydroxypropylcellulose) (HPC)
[10] = dose: 50.0 mg/kg/injection, schedule: Q01DX009 (ip), vehicle: Klucel (hydroxypropylcellulose) (HPC)
[11] = dose: 25.0 mg/kg/injection, schedule: Q01DX009 (ip), vehicle: Klucel (hydroxypropylcellulose) (HPC)
[12] = dose: 100.0 mg/kg/injection, schedule: Q01DX009 (ip), vehicle: saline

Measured: T/C

c1ccc(N=NC(N=Nc2ccccc2)=P(c2ccccc2)(c2ccccc2)c2ccccc2)cc1
inactive: [1] 97 % of control | [2] 108 % of control

CCN=C(c1ccc(NC(=O)c2ccc(C(=O)Nc3ccc(C(=NCC)N(CC)C(C)=O)cc3)cc2)cc1)N(CC)C(C)=O
inactive: dose: 125.0 mg/kg/injection, schedule: Q01DX015 (ip), vehicle: methylcellulose (MC) 95 % of control | dose: 375.0 mg/kg/injection, schedule: Q01DX015 (ip), vehicle: methylcellulose (MC) 104 % of control | dose: 500.0 mg/kg/injection, schedule: Q01DX015 (ip), vehicle: methylcellulose (MC) 103 % of control

CSC(S(C)(=O)=O)S(C)(=O)=O
inactive: [3] 90 % of control | [4] 96 % of control | [5] 98 % of control

Cc1ccc(/C([O-])=C(\C(=S)Nc2cccc(Cl)c2)[n+]2ccccc2)cc1
inactive: [1] 104 % of control | [2] 95 % of control | [6] 108 % of control

NC1CC(N)CC(N)C1 (stereo not drawn)
inactive: dose: 25.0 mg/kg/injection, schedule: Q04DX003 (ip), vehicle: saline 92 % of control | dose: 50.0 mg/kg/injection, schedule: Q04DX003 (ip), vehicle: saline 99 % of control | [7] 86 % of control and 91 % of control

COc1cccc(C(c2ccccc2)C(CC(=O)O)CC(=O)O)c1 (stereo not drawn)
inactive: dose: 75.0 mg/kg/injection, schedule: Q04DX002 (ip), vehicle: Klucel (hydroxypropylcellulose) (HPC) 101 % of control | dose: 150.0 mg/kg/injection, schedule: Q04DX002 (ip), vehicle: Klucel (hydroxypropylcellulose) (HPC) 108 % of control | dose: 300.0 mg/kg/injection, schedule: Q04DX002 (ip), vehicle: Klucel (hydroxypropylcellulose) (HPC) 97 % of control

Cc1c(N=Nc2ccccc2)c(=O)[nH]n1-c1ccccc1
inactive: dose: 100.0 mg/kg/injection, schedule: Q01DX001 (ip), vehicle: Klucel (hydroxypropylcellulose) (HPC) 105 % of control | [8] 111 % of control | dose: 200.0 mg/kg/injection, schedule: Q01DX001 (ip), vehicle: Klucel (hydroxypropylcellulose) (HPC) 107 % of control | [9] 106 % of control | dose: 400.0 mg/kg/injection, schedule: Q01DX001 (ip), vehicle: Klucel (hydroxypropylcellulose) (HPC) 103 % of control | dose: 400.0 mg/kg/injection, schedule: Q04DX003 (ip), vehicle: Klucel (hydroxypropylcellulose) (HPC) 96 % of control

CCOC(=O)c1cc(C(=O)OCC)c[n+](CCCl)c1
inactive: dose: 8.0 mg/kg/injection, schedule: Q01DX010 (ip), vehicle: other 104 % of control | dose: 16.0 mg/kg/injection, schedule: Q01DX010 (ip), vehicle: other 104 % of control | dose: 32.0 mg/kg/injection, schedule: Q01DX010 (ip), vehicle: other 111 % of control | dose: 64.0 mg/kg/injection, schedule: Q01DX010 (ip), vehicle: other 109 % of control | dose: 64.0 mg/kg/injection, schedule: Q01DX Z (ip), vehicle: other 105 % of control

Cc1ccc(NC(=O)NCCCl)cc1NC(=O)NCCCl
inactive: [10] 106 % of control | [1] 97 % of control | [8] 94 % of control | [2] 108 % of control | [9] 95 % of control

COc1ccc(N=CN(C)C)nn1
inactive: dose: 100.0 mg/kg/injection, schedule: Q04DX002 (ip), vehicle: saline with Tween-80 91 % of control | dose: 200.0 mg/kg/injection, schedule: Q04DX002 (ip), vehicle: saline with Tween-80 97 % of control | dose: 400.0 mg/kg/injection, schedule: Q04DX002 (ip), vehicle: saline with Tween-80 97 % of control

CC1(C)N=C(N)N=C(N)N1c1ccc(CCc2ccccc2)cc1
inactive: dose: 12.5 mg/kg/injection, schedule: Q01DX009 (ip), vehicle: Klucel (hydroxypropylcellulose) (HPC) 97 % of control | dose: 12.5 mg/kg/injection, schedule: Q04DX003 (ip), vehicle: Klucel (hydroxypropylcellulose) (HPC) 98 % of control | dose: 12.5 mg/kg/injection, schedule: Q04DX003 (ip), vehicle: saline with Tween-80 101 % of control | [11] 93 % of control | dose: 25.0 mg/kg/injection, schedule: Q04DX003 (ip), vehicle: Klucel (hydroxypropylcellulose) (HPC) 104 % of control | dose: 25.0 mg/kg/injection, schedule: Q04DX003 (ip), vehicle: saline with Tween-80 102 % of control | dose: 50.0 mg/kg/injection, schedule: Q04DX003 (ip), vehicle: Klucel (hydroxypropylcellulose) (HPC) 93 % of control | dose: 50.0 mg/kg/injection, schedule: Q04DX003 (ip), vehicle: saline with Tween-80 104 % of control

CC(=O)OC1(C(C)=O)CCC2C3CC(C)(O)C4=CC(=O)CCC4(C)C3CCC21C (stereo not drawn)
inactive: [11] 97 % of control | [10] 95 % of control | [1] 103 % of control | [2] 101 % of control

COC(=O)c1cc(C)c(N)cc1C
inactive: dose: 100.0 mg/kg/injection, schedule: Q01DX001 (ip), vehicle: saline 96 % of control | dose: 200.0 mg/kg/injection, schedule: Q01DX001 (ip), vehicle: saline 104 % of control | dose: 400.0 mg/kg/injection, schedule: Q01DX001 (ip), vehicle: saline 102 % of control

CC(C)(C)c1cc(/C=N/NC(=S)Nc2ccccc2)cc(C(C)(C)C)c1O
inactive: dose: 100.0 mg/kg/injection, schedule: Q04DX002 (ip), vehicle: Klucel (hydroxypropylcellulose) (HPC) 96 % of control | dose: 200.0 mg/kg/injection, schedule: Q04DX002 (ip), vehicle: Klucel (hydroxypropylcellulose) (HPC) 89 % of control | dose: 400.0 mg/kg/injection, schedule: Q04DX002 (ip), vehicle: Klucel (hydroxypropylcellulose) (HPC) 92 % of control

CC(C)N=C(N)C(N)=NC(C)C
inactive: [12] 97 % of control | [7] 98 % of control | dose: 200.0 mg/kg/injection, schedule: Q01DX009 (ip), vehicle: saline 92 % of control | dose: 200.0 mg/kg/injection, schedule: Q04DX003 (ip), vehicle: saline 104 % of control | dose: 400.0 mg/kg/injection, schedule: Q01DX009 (ip), vehicle: saline 96 % of control | dose: 400.0 mg/kg/injection, schedule: Q04DX003 (ip), vehicle: saline 96 % of control

COc1ccc(C(=O)N/N=C/c2ccc(Cl)cc2Cl)cc1
inactive: [1] 102 % of control | [2] 94 % of control | [6] 91 % of control

COc1cc2c(cc1O)CN(CCC(C)=O)CC2O (stereo not drawn)
inactive: dose: 25.0 mg/kg/injection, schedule: Q01DX009 (ip), vehicle: saline 101 % of control | dose: 50.0 mg/kg/injection, schedule: Q01DX009 (ip), vehicle: saline 93 % of control | [12] 86 % of control

CCOC(=O)N1C(=O)C2C3CCC(O3)C2C1=O (stereo not drawn)
inactive: dose: 25.0 mg/kg/injection, schedule: Q01DX009 (ip), vehicle: saline with Tween-80 107 % of control | dose: 50.0 mg/kg/injection, schedule: Q01DX009 (ip), vehicle: saline with Tween-80 110 % of control

O=C(O)c1ccccc1C(=O)OC1C=CC2CCC1C2 (stereo not drawn)
inactive: dose: 100.0 mg/kg/injection, schedule: Q01DX001 (ip), vehicle: carboxymethylcellulose (CMC) 112 % of control | dose: 200.0 mg/kg/injection, schedule: Q01DX001 (ip), vehicle: carboxymethylcellulose (CMC) 90 % of control | dose: 400.0 mg/kg/injection, schedule: Q01DX001 (ip), vehicle: carboxymethylcellulose (CMC) 96 % of control

C/C(=N\OCc1cc2c(cc1Cl)OCO2)C(=O)O
inactive: [3] 100 % of control | [4] 99 % of control | [5] 91 % of control

CCOc1cccc(CCC(=O)O)c1
inactive: dose: 100.0 mg/kg/injection, schedule: Q04DX003 (ip), vehicle: gum acacia 105 % of control | dose: 200.0 mg/kg/injection, schedule: Q04DX003 (ip), vehicle: gum acacia 96 % of control | dose: 400.0 mg/kg/injection, schedule: Q04DX003 (ip), vehicle: gum acacia 93 % of control

COC(=O)C(=O)c1ccccc1
inactive: dose: 100.0 mg/kg/injection, schedule: Q01DX009 (ip), vehicle: saline with Tween-80 101 % of control | dose: 200.0 mg/kg/injection, schedule: Q01DX009 (ip), vehicle: saline with Tween-80 100 % of control | dose: 400.0 mg/kg/injection, schedule: Q01DX009 (ip), vehicle: saline with Tween-80 89 % of control

NC(CCl)=NCc1ccccn1
inactive: dose: 100.0 mg/kg/injection, schedule: Q04DX002 (ip), vehicle: saline 96 % of control

COc1ccc(OC)c(NC(=S)N/N=C(\C)c2ccc(O)c(C)c2)c1
inactive: dose: 12.5 mg/kg/injection, schedule: Q04DX002 (ip), vehicle: Klucel (hydroxypropylcellulose) (HPC) 97 % of control | dose: 25.0 mg/kg/injection, schedule: Q04DX002 (ip), vehicle: Klucel (hydroxypropylcellulose) (HPC) 115 % of control

From PubChem BioAssay AID248 (DTP/NCI, 2004)
